Here are results for 5 compounds from patent publication US8618098B2, “Inhibitors of bruton's tyrosine kinase” (Roche Palo Alto LLC, priority 2008, dated 2013).

pIC50: −log10 of the molar value.

In data set [1] the target is Btk enzyme (His-tagged, full-length) (Homo sapiens (Human), UniProt Q06187). Description: Bruton's Tyrosine Kinase (Btk) Inhibition Assay. In kind it is biochemical. The note with it: 33P filtration capture assay, 100 μM ATP, 30 μM biotinylated peptide substrate. From the text:
The assay is a capture of radioactive ^33P phosphorylated product through filtration. The interactions of Btk, biotinylated SH2 peptide substrate (Src homology), and ATP lead to phosphorylation of the peptide substrate. Biotinylated product is bound streptavidin sepharose beads. All bound, radiolabeled products are detected by scintillation counter.
Plates assayed are 96-well polypropylene (Greiner) and 96-well 1.2 μm hydrophilic PVDF filter plates (Millipore). Concentrations reported here are final assay concentrations: 10-100 μM compounds in DMSO (Burdick and Jackson), 5-10 nM Btk enzyme (His-tagged, full-length), 30 μM peptide substrate (Biotin-Aca-[…]-NH2), 100 μM ATP (Sigma), 8 mM imidazole (Sigma, pH 7.2), 8 mM glycerol-2-phosphate (Sigma), 200 μM EGTA (Roche Diagnostics), 1 mM MnCl2 (Sigma), 20 mM MgCl2 (Sigma), 0.1 mg/ml BSA (Sigma), 2 mM DTT (Sigma), 1 μCi ^33P ATP (Amersham), 20% streptavidin sepharose beads (Amersham), 50 mM EDTA (Gibco), 2 M NaCl (Gibco), 2 M NaCl w/1% phosphoric acid (Gibco), microscint-20 (Perkin Elmer).
IC50 determinations are calculated from 10 data points per compound utilizing data produced from a standard 96-well plate assay template. One control compound and seven unknown inhibitors were tested on each plate and each plate was run twice. Typically, compounds were diluted in half-log starting at 100 μM and ending at 3 nM. The control compound was staurosporine. Background was counted in the absence of peptide substrate. Total activity was determined in the presence of peptide substrate. The following protocol was used to determine Btk inhibition.
1) Sample preparation: The test compounds were diluted at half-log increments in assay buffer (imidazole, glycerol-2-phosphate, EGTA, MnCl2, MgCl2, BSA).
a.) rinse beads by centrifuging at 500 g
b.) reconstitute the beads with PBS and EDTA to produce a 20% bead slurry
3) Pre-incubate reaction mix without substrate (assay buffer, DTT, ATP, ^33P ATP) and mix with substrate (assay buffer, DTT, ATP, ^33P ATP, peptide substrate) 30° C. for 15 min.
4) To start assay, pre-incubate 10 μL Btk in enzyme buffer (imidazole, glycerol-2-phosphate, BSA) and 10 μL of test compounds for 10 min at RT.
5) Add 30 μL reaction mixture without or with substrate to Btk and compounds.
6) Incubate 50 μL total assay mix for 30 min at 30° C.
7) Transfer 40 μL of assay to 150 μL bead slurry in filter plate to stop reaction.
8) Wash filter plate after 30 min, with following steps
b. 3×250 μL NaCl containing 1% phosphoric acid
9) Dry plate for 1 h at 65° C. or overnight at RT
10) Add 50 μL microscint-20 and count ^33P cpm on scintillation counter. […]

Chain of Btk enzyme (His-tagged, full-length) (Q06187 whole entry): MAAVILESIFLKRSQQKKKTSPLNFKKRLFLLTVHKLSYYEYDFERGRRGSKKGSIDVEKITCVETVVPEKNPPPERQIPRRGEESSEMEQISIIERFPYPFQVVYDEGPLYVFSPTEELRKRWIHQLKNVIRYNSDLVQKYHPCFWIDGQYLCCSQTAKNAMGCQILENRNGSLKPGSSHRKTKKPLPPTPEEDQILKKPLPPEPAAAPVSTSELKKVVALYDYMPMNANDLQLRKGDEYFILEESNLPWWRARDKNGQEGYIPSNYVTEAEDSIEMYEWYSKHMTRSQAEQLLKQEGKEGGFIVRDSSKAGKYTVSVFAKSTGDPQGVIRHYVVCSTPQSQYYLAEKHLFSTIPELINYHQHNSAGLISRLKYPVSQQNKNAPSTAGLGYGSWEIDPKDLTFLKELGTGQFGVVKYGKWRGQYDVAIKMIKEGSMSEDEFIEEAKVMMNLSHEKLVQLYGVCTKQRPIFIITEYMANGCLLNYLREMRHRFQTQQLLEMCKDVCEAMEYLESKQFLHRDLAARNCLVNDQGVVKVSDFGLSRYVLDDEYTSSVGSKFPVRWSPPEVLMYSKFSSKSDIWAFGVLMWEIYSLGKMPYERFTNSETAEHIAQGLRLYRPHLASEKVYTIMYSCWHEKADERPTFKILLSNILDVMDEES

A word on the pIC50: it is −log10 of the IC50, conventionally taken in molar units. What is called melting point is the temperature of the solid-liquid transition. `Cc1c(-c2cc(Nc3ccc(C(=O)N4CCOCC4)cn3)c(=O)n(C)c2)cccc1N1CNc2cc(N(C)C)ccc2C1=O` [II-1, 7-Dimethylamino-3-(2-methyl-3-{1-methyl-5-[5-(morpholin-4-carbonyl)-pyridin-2-ylamino]-6-oxo-1,6-dihydro-pyridin-3-yl}-phenyl)-2,3-dihydro-1H-quinazolin-4-one] displayed a melting point of 247.1 to 250.9 °C. Also, in data set [1], the negative-log IC50 (pIC50) was 7.66.

The compound `Cc1c(-c2cc(Nc3ccc(C(=O)N4CCOCC4)cn3)c(=O)n(C)c2)cccc1-n1ncc2cc(N(C)C)ccc2c1=O` [III-1, 6-Dimethylamino-2-(2-methyl-3-{1-methyl-5-[5-(morpholine-4-carbonyl)-pyridin-2-ylamino]-6-oxo-1,6-dihydro-pyridin-3-yl}-phenyl)-2H-phthalazin-1-one] showed a pIC50 in data set [1] of 6.91. In turn, `CNC(=O)Nc1cc(-c2cccc(N3CNc4cc(N(C)C)ccc4C3=O)c2C)cn(C)c1=O` [II-2, 1-{5-[3-(7-Dimethylamino-4-oxo-1,4-dihydro-2H-quinazolin-3-yl)-2-methyl-phenyl]-1-methyl-2-oxo-1,2-dihydro-pyridin-3-yl}-3-methyl-urea] gave a melting point of 218.5 to 223.8 °C. Compound `Cc1c(-c2cc(Nc3ccc(C(=O)N4CCOCC4)cn3)c(=O)n(C)c2)cccc1N1CNc2cc(C(C)(C)O)ccc2C1=O` [II-3, 7-(1-Hydroxy-1-methyl-ethyl)-3-(2-methyl-3-{1-methyl-5-[5-(morpholine-4-carbonyl)-pyridin-2-ylamino]-6-oxo-1,6-dihydro-pyridin-3-yl}-phenyl)-2,3-dihydro-1H-quinazolin-4-one] yielded a melting point of 196 to 197 °C. In data set [1], the pIC50 was 7.74. `CNC(=O)Nc1cc(-c2cccc(-n3cnc4cc(C(C)(C)C)ccc4c3=O)c2C)cn(C)c1=O` [Compound I-1, 1-{5-[3-(7-tert-Butyl-4-oxo-4H-quinazolin-3-yl)-2-methyl-phenyl]-1-methyl-2-oxo-1,2-dihydro-pyridin-3-yl}-3-methyl urea] gave a pIC50 in data set [1] of 6.95.
